Measurements reported in ChEMBL document CHEMBL1201861, “Genomics of Drug Sensitity in Cancer screening data, Wellcome Trust Sanger Institute”.

How the values were obtained:
A 172 = assay: cells; type: functional, cell-based, Homo sapiens;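 also: growth inhibition of A172 cells, measured with a cell viability readout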
Description: SANGER: Inhibition of human A172 cell growth in a cell viability assay.

IGROV-1 = assay: cells; type: functional, cell-based, Homo sapiens;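 also: reduction of IGROV-1 cell growth, read out with a viability assay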
Description: SANGER: Inhibition of human IGROV-1 cell growth in a cell viability assay.

HLE = assay: cells; type: functional, cell-based, Homo sapiens;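 also: growth inhibition of human HLE cells, read out by a cell viability assay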
Description: SANGER: Inhibition of human HLE cell growth in a cell viability assay.

SW1783 = assay: cells; type: functional, cell-based, Homo sapiens
Description: SANGER: Inhibition of human SW1783 cell growth in a cell viability assay.

SNU-423 = assay: cells; type: functional, cell-based, Homo sapiens
Description: SANGER: Inhibition of human SNU-423 cell growth in a cell viability assay.

DMS-153 = assay: cells; type: functional, cell-based, Homo sapiens
Description: SANGER: Inhibition of human DMS-153 cell growth in a cell viability assay.

Hs-578T = assay: cells; type: functional, cell-based, Homo sapiens
Description: SANGER: Inhibition of human Hs-578-T cell growth in a cell viability assay.

ME-180 = assay: cells; type: functional, cell-based, Homo sapiens;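 also: cell viability assay measuring growth inhibition of ME-180 cells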
Description: SANGER: Inhibition of human ME-180 cell growth in a cell viability assay.

Detroit 562 = assay: cells; type: functional, cell-based, Homo sapiens;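 also: growth inhibition of human Detroit 562 cells, read out by a cell viability assay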
Description: SANGER: Inhibition of human Detroit562 cell growth in a cell viability assay.

KYSE-270 = assay: cells; type: functional, cell-based, Homo sapiens;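 also: cell growth inhibition measured with a viability assay in the human KYSE-270 line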
Description: SANGER: Inhibition of human KYSE-270 cell growth in a cell viability assay.

M14 = assay: cells; type: functional, cell-based, Homo sapiens;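 also: growth inhibition of M14 cells, read out with a cell viability assay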
Description: SANGER: Inhibition of human M14 cell growth in a cell viability assay.

SN12C = assay: cells; type: functional, cell-based, Homo sapiens;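 also: growth inhibition of human SN12C cells, measured by a cell viability assay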
Description: SANGER: Inhibition of human SN12C cell growth in a cell viability assay.

NCI-H28 = assay: cells; type: functional, cell-based, Homo sapiens;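 also: growth inhibition of human NCI-H28 cells, read out as cell viability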
Description: SANGER: Inhibition of human NCI-H28 cell growth in a cell viability assay.

HCC1395 = assay: cells; type: functional, cell-based, Homo sapiens;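 also: growth inhibition of HCC1395 cells, read out by a cell viability assay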
Description: SANGER: Inhibition of human HCC1395 cell growth in a cell viability assay.

HSC-4 = assay: cells; type: functional, cell-based, Homo sapiens;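 also: growth inhibition of human HSC-4 cells, read out with a cell viability assay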
Description: SANGER: Inhibition of human HSC-4 cell growth in a cell viability assay.

NCI-H2081 = assay: cells; type: functional, cell-based, Homo sapiens;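 also: growth inhibition of human NCI-H2081 cells, read out with a cell viability assay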
Description: SANGER: Inhibition of human NCI-H2081 cell growth in a cell viability assay.

GAMG = assay: cells; type: functional, cell-based, Homo sapiens;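 also: cell growth inhibition measured by a viability assay in the GAMG human cell line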
Description: SANGER: Inhibition of human GAMG cell growth in a cell viability assay.

NCI-H2052 = assay: cells; type: functional, cell-based, Homo sapiens;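 also: growth inhibition of NCI-H2052 cells, read out with a cell viability assay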
Description: SANGER: Inhibition of human NCI-H2052 cell growth in a cell viability assay.

NCI-H2171 = assay: cells; type: functional, cell-based, Homo sapiens;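 also: growth inhibition of human NCI-H2171 cells, read out by a cell viability assay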
Description: SANGER: Inhibition of human NCI-H2171 cell growth in a cell viability assay.

MRK-nu-1 = assay: cells; type: functional, cell-based, Homo sapiens;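 also: cell viability assay measuring growth suppression of human MRK-nu-1 cells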
Description: SANGER: Inhibition of human MRK-nu-1 cell growth in a cell viability assay.

MDA-MB-175-VII = assay: cells; type: functional, cell-based, Homo sapiens
EFO-21 = assay: cells; type: functional, cell-based, Homo sapiens;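 also: growth inhibition of EFO-21 cells measured with a viability assay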
Description: SANGER: Inhibition of human EFO-21 cell growth in a cell viability assay.

LCLC-103H cell line = assay: cells; type: functional, cell-based, Homo sapiens
Description: SANGER: Inhibition of human LCLC-103H cell growth in a cell viability assay.

BFTC-909 = assay: cells; type: functional, cell-based, Homo sapiens
Description: SANGER: Inhibition of human BFTC-909 cell growth in a cell viability assay.

KYSE-520 cell line = assay: cells; type: functional, cell-based, Homo sapiens;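 also: growth inhibition of human KYSE-520 cells, read out with a viability assay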
Description: SANGER: Inhibition of human KYSE-520 cell growth in a cell viability assay.

NCI-H1693 = assay: cells; type: functional, cell-based, Homo sapiens;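 also: growth inhibition of the human cell line, read out with a cell viability assay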
Description: SANGER: Inhibition of human NCI-H1693 cell growth in a cell viability assay.

BOKU = assay: cells; type: functional, cell-based, Homo sapiens;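 also: growth inhibition of the human BOKU cell line, read out by a cell viability assay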
Description: SANGER: Inhibition of human BOKU cell growth in a cell viability assay.

SW1990 = assay: cells; type: functional, cell-based, Homo sapiens
Description: SANGER: Inhibition of human SW1990 cell growth in a cell viability assay.

NCI-H2347 = assay: cells; type: functional, cell-based, Homo sapiens;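 also: growth inhibition of the cell line, read out with a cell viability assay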
Description: SANGER: Inhibition of human NCI-H2347 cell growth in a cell viability assay.

Huh-7 = assay: cells; type: functional, cell-based, Homo sapiens;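 also: HuH-7 cell growth inhibition, read out with a cell viability assay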
Description: SANGER: Inhibition of human HuH-7 cell growth in a cell viability assay.

HSC-3 = assay: cells; type: functional, cell-based, Homo sapiens
Description: SANGER: Inhibition of human HSC-3 cell growth in a cell viability assay.

NCI-H2087 = assay: cells; type: functional, cell-based, Homo sapiens;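 also: growth inhibition determined with a cell viability readout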
Description: SANGER: Inhibition of human NCI-H2087 cell growth in a cell viability assay.

639-V = assay: cells; type: functional, cell-based, Homo sapiens;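 also: growth inhibition of 639-V cells, read out with a cell viability assay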
Description: SANGER: Inhibition of human 639-V cell growth in a cell viability assay.

C-33-A = assay: cells; type: functional, cell-based, Homo sapiens;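 also: cell viability assay measuring growth inhibition of C-33-A cells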
Description: SANGER: Inhibition of human C-33-A cell growth in a cell viability assay.

NCI-H727 = assay: cells; type: functional, cell-based, Homo sapiens;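 also: growth inhibition of human NCI-H727 cells, read out with a cell viability assay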
Description: SANGER: Inhibition of human NCI-H727 cell growth in a cell viability assay.

CHP-126 = assay: cells; type: functional, cell-based, Homo sapiens
Description: SANGER: Inhibition of human CHP-126 cell growth in a cell viability assay.

OPM-2 = assay: cells; type: functional, cell-based, Homo sapiens;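 also: growth of OPM-2 cells measured with a viability assay, IC50 for suppression of proliferation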
Description: SANGER: Inhibition of human OPM-2 cell growth in a cell viability assay.

RCM-1 = assay: cells; type: functional, cell-based, Homo sapiens;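 also: growth inhibition of the RCM-1 line, determined with a cell viability readout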
Description: SANGER: Inhibition of human RCM-1 cell growth in a cell viability assay.

HPAF-II = assay: cells; type: functional, cell-based, Homo sapiens;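 also: growth inhibition of HPAF-II cells, read out with a cell viability assay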
Description: SANGER: Inhibition of human HPAF-II cell growth in a cell viability assay.

EFM-19 = assay: cells; type: functional, cell-based, Homo sapiens;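 also: growth inhibition of human EFM-19 cells, measured in a cell viability assay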
Description: SANGER: Inhibition of human EFM-19 cell growth in a cell viability assay.

NCI-H748 = assay: cells; type: functional, cell-based, Homo sapiens;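 also: growth inhibition of NCI-H748 cells, measured by a cell viability assay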
Description: SANGER: Inhibition of human NCI-H748 cell growth in a cell viability assay.

786-0 = assay: cells; type: functional, cell-based, Homo sapiens
Description: SANGER: Inhibition of human 786-0 cell growth in a cell viability assay.

SU-DHL-1 = assay: SANGER: Inhibition of human SU-DHL-1 cell growth in a cell viability assay.; type: functional, cell-based
8305C = assay: cells; type: functional, cell-based, Homo sapiens
Description: SANGER: Inhibition of human 8305C cell growth in a cell viability assay.

Cc1cc([N+](=O)[O-])ccc1NS(=O)(=O)c1cc(Cl)ccc1Cl
IC50 (A 172; Homo sapiens, A 172): 5.91 µM | IC50 (IGROV-1; Homo sapiens, IGROV-1): 2.66 µM | IC50 (HLE; Homo sapiens, HLE): 1.99 µM | IC50 (SW1783; Homo sapiens, SW1783): 7.15 µM | IC50 (SNU-423; Homo sapiens, SNU-423): 7.17 µM | IC50 (DMS-153; Homo sapiens, DMS-153): 29.1 µM | IC50 (Hs-578T; Homo sapiens, Hs-578T): 11.5 µM | IC50 (ME-180; Homo sapiens, ME-180): 2.82 µM | IC50 (Detroit 562; Homo sapiens, Detroit 562): 5.32 µM | IC50 (KYSE-270; Homo sapiens, KYSE-270): 3.03 µM | IC50 (M14; Homo sapiens, M14): > 32 µM | IC50 (SN12C; Homo sapiens, SN12C): 3.64 µM | IC50 (NCI-H28; Homo sapiens, NCI-H28): 8.5 µM | IC50 (HCC1395; Homo sapiens, HCC1395): 0.381 µM | IC50 (HSC-4; Homo sapiens, HSC-4): 12.2 µM | IC50 (NCI-H2081; Homo sapiens, NCI-H2081): > 32 µM | IC50 (GAMG; Homo sapiens, GAMG): 5.58 µM | IC50 (NCI-H2052; Homo sapiens, NCI-H2052): 18.2 µM | IC50 (NCI-H2171; Homo sapiens, NCI-H2171): > 32 µM | IC50 (MRK-nu-1; Homo sapiens, MRK-nu-1): 2.73 µM | IC50 (MDA-MB-175-VII; Homo sapiens, MDA-MB-175-VII): 2.02 µM | IC50 (EFO-21; Homo sapiens, EFO-21): 11.1 µM | IC50 (LCLC-103H cell line; Homo sapiens, LCLC-103H): 5.6 µM | IC50 (BFTC-909; Homo sapiens, BFTC-909): 3.61 µM | IC50 (KYSE-520 cell line; Homo sapiens, KYSE-520): 27.6 µM | IC50 (NCI-H1693; Homo sapiens, NCI-H1693): > 32 µM | IC50 (BOKU; Homo sapiens, BOKU): 4.36 µM | IC50 (SW1990; Homo sapiens, SW1990): 5.38 µM | IC50 (NCI-H2347; Homo sapiens, NCI-H2347): 5.86 µM | IC50 (Huh-7; Homo sapiens, Huh-7): 1.57 µM | IC50 (HSC-3; Homo sapiens, HSC-3): 2.89 µM | IC50 (NCI-H2087; Homo sapiens, NCI-H2087): 2.16 µM | IC50 (639-V; Homo sapiens, 639-V): 1.61 µM | IC50 (C-33-A; Homo sapiens, C-33-A): 2 µM | IC50 (NCI-H727; Homo sapiens, NCI-H727): 2.03 µM | IC50 (CHP-126; Homo sapiens, CHP-126): > 32 µM | IC50 (OPM-2; Homo sapiens, OPM-2): > 32 µM | IC50 (RCM-1; Homo sapiens, RCM-1): 8.76 µM | IC50 (HPAF-II; Homo sapiens, HPAF-II): 10.7 µM | IC50 (EFM-19; Homo sapiens, EFM-19): 5.44 µM | IC50 (NCI-H748; Homo sapiens, NCI-H748): > 32 µM | IC50 (786-0; Homo sapiens): 3.92 µM | IC50 (SU-DHL-1; Homo sapiens, SU-DHL-1): > 32 µM | IC50 (8305C; Homo sapiens, 8305C): 3.99 µM

BLEOMYCIN
IC50 (A 172; a 172): 39.7 µM | IC50 (IGROV-1; igrov-1): 0.145 µM | IC50 (HLE; hle): 4 µM | IC50 (SW1783; sw1783): 0.249 µM | IC50 (SNU-423; snu-423): 0.867 µM | IC50 (DMS-153; dms-153): 165 µM | IC50 (Hs-578T; hs-578-t): 344 µM | IC50 (ME-180; me-180): 40.9 µM | IC50 (Detroit 562; detroit 562): 11.9 µM | IC50 (KYSE-270; kyse-270): 0.717 µM | IC50 (M14; m14): 3.22 µM | IC50 (SN12C; sn12c): 315 µM | IC50 (NCI-H28; nci-h28): 2.74 µM | IC50 (HCC1395; hcc1395): 0.501 µM | IC50 (HSC-4; hsc-4): 153 µM | IC50 (NCI-H2081; nci-h2081): 221 µM | IC50 (GAMG; gamg): 0.289 µM | IC50 (NCI-H2052; nci-h2052): 2.97 µM | IC50 (NCI-H2171; nci-h2171): 1420 µM | IC50 (MRK-nu-1; mrk-nu-1): 1.45 µM | IC50 (MDA-MB-175-VII; mda-mb-175-vii): 1.51 µM | IC50 (EFO-21; efo-21): 4.33 µM | IC50 (LCLC-103H cell line; lclc-103h): 0.144 µM | IC50 (BFTC-909; bftc-909): 0.0138 µM | IC50 (KYSE-520 cell line; kyse-520): 6.79 µM | IC50 (NCI-H1693; nci-h1693): 16.6 µM | IC50 (BOKU; boku): 0.137 µM | IC50 (SW1990; sw1990): 4.24 µM | IC50 (NCI-H2347; nci-h2347): 5.12 µM | IC50 (Huh-7; huh-7): 2.43 µM | IC50 (HSC-3; hsc-3): 0.688 µM | IC50 (NCI-H2087; nci-h2087): 2.35 µM | IC50 (639-V; 639-v): 0.22 µM | IC50 (C-33-A; c-33-a): 0.432 µM | IC50 (NCI-H727; nci-h727): 10.3 µM | IC50 (CHP-126; chp-126): 1.27 µM | IC50 (OPM-2; opm-2): 104 µM | IC50 (RCM-1; rcm-1): 1.26 µM | IC50 (HPAF-II; hpaf-ii): 233 µM | IC50 (EFM-19; efm-19): 0.0148 µM | IC50 (NCI-H748; nci-h748): 75.2 µM | IC50 (786-0): 0.0808 µM | IC50 (SU-DHL-1; su-dhl-1): 2.05 µM | IC50 (8305C; 8305c): 0.804 µM
